One test concerns the target T1, 11beta-HSD1 enzyme (Homo sapiens, UniProt P28845).
T1 construct: made in house; host or cells: Saccharomyces cerevisiae
The test is described as follows: SPA (Scintillation Proximity Assay) of in vitro inhibitory activity on 11beta-HSD1, 384-well format. It counts as biochemical. Conditions: recombinant 11beta-HSD1 produced in yeast S. cerevisiae; 3H-cortisone, NADPH; cortisol formed; read-out: concentration which inhibits 50% of the activity of 11beta-HSD1 (IC50). The protocol: The compounds according to the invention were the subject of pharmacological assays for determining their inhibitory effect on the 11beta-HSD1 enzyme which is an enzyme involved in lipid metabolism or glucose metabolism.
These assays consisted in measuring the in vitro inhibitory activity of the compounds of the invention by means of an SPA (Scintillation Proximity Assay) in 384-well format. Recombinant 11beta-HSD1 protein was produced in the yeast S. cerevisiae. The reaction was carried out by incubating the enzyme in the presence of ^3H-cortisone and of NADPH, in the absence or presence of an increasing concentration of inhibitor. SPA beads coupled to an anti-mouse antibody, pre-incubated with an anti-cortisol antibody, made it possible to measure the amount of cortisol formed during the course of the reaction.
The inhibitory activity with respect to the 11beta-HSD1 enzyme is given by the concentration which inhibits 50% of the activity of 11beta-HSD1 (IC50).
A general note: SPA uses beads or plates that emit light when radiolabelled molecules are held near them.

A further test deals with T2, 11βHSD1 in the eyes (Homo sapiens, UniProt P28845).
T2 construct: host or cells: healthy volunteers (in vivo, eye)
Conditions: healthy volunteers; after seven days of treatment; cited from earlier work.

For test [1], the target named is T3, 11βHSD1 (Homo sapiens, UniProt P28845). As to conditions: slim volunteer patients and type 2 diabetics; cited from earlier work.
Test [2] concerns the target T3, 11βHSD1. On the set-up: host or cells: healthy volunteers (in vivo, bone). As to conditions: healthy volunteers; cited from earlier work.
The target in test [3] is T3, 11βHSD1. The arrangement: host or cells: elderly human individuals (in vivo). Conditions: elderly individuals; cited from earlier work.

T3 sequence (P28845 whole entry): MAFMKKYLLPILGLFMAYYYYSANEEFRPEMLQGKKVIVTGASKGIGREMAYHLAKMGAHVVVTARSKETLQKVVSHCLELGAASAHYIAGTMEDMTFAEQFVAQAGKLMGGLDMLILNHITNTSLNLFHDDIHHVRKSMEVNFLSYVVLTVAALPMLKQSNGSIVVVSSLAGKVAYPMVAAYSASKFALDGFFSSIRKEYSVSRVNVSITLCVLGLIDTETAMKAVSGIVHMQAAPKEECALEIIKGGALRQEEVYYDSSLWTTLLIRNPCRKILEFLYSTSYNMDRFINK
T1 sequence (P28845 whole entry, species assumed): as the sequence (P28845 whole entry) above
T2 sequence (P28845 whole entry): as above

`CS(=O)(=O)N1CCN(c2ccc(OCC3CC4CCC(C3)N4C(=O)NC3C4CC5CC3CC(O)(C5)C4)cc2)CC1` (stereo not drawn) [Compound No. 17, endo-3-[4-(4-Methanesulfonylpiperazin-1-yl)phenoxymethyl]-8-azabicyclo-[3.2.1]octane-8-carboxylic acid (trans-5-hydroxyadamantan-2-yl)amide]: the IC50 at 11beta-HSD1 enzyme was 4 nM.

In the case of `CC1(C)[C@@H](OC(=O)CCC(=O)O)CC[C@]2(C)[C@H]3C(=O)C=C4[C@@H]5C[C@@](C)(C(=O)O)CC[C@]5(C)CC[C@@]4(C)[C@]3(C)CC[C@@H]12` [carbenoxolone], the “IOP (intraocular pressure) reduced by” value at 11βHSD1 in the eyes is given as 18%. The insulin sensitivity entry on 11βHSD1 [1] is listed as “improves insulin sensitivity”. Also, at 11βHSD1 [2], the bone formation markers result was “without any change” and the bone resorption markers result is on record as “decrease”. Besides, the “verbal fluidity and verbal memory” value at 11βHSD1 [3] is “improves verbal fluidity and verbal memory”.

For the compound `CS(=O)(=O)N1CCN(c2ccc(OC3CC4CCC(C3)N4C(=O)NC3C4CC5CC3CC(O)(C5)C4)cc2)CC1` (stereo not drawn) [compound 5, exo-3-[4-(4-Methanesulfonylpiperazin-1-yl)phenoxy]-8-azabicyclo-[3.2.1]octane-8-carboxylic acid (trans-5-hydroxyadamantan-2-yl)amide], the IC50 at 11beta-HSD1 enzyme turned out to be 10 nM.
